Tested on: 192522-019-R-J2-PDC complex tumor spheroid viability
Assay: Anticancer human tumor 192522-019-R-J2-PDC patient-derived colon adenocarcinoma cell line growth inhibition [POLQ]
Details: for IC50: curve of first compound; for viability, T/C: stronger effect = lower value
Procedure: Multicellular complex tumor spheroid response to Polymerase (POL) inhibitors (novobiocin, ART-558, RP6685) in combination with a variety of drugs and investigational agents in selected tumor cell lines
The POL inhibitors (novobiocin, ART-558, and RP6685) were evaluated both individually and in combination with standard of care and investigational anticancer small molecules within a complex spheroid model of solid tumors. . Complex spheroids include a stromal component modeled by human endothelial cells (HUVEC) and fibroblasts modeled by human mesenchymal stem cells (MSCs). The concentration ranges selected for each drug and investigational agent were based upon clinically achievable concentrations if the clinical Cmax of the agent was known.
Compounds. The drugs and investigational agents: novobiocin (NSC847541), ART-558 (NSC835418), RP-6685 (NSC848927), peposertib (NSC802822), ceralasertib (NSC780249), elimusertib (NSC800525), camonsertib (NSC841442), AZD-1390 (NSC803789), olaparib (NSC753686), talazoparib (NSC767125), rucaparib (NSC756644), sotorasib (NSC818433), MRTX-1133 (NSC836407), SN-38 (NSC673596), topotecan (NSC609699), epotoside (NSC141540), doxorubicin (NSC123127), gemcitabine (NSC613327), 5-fluorouracil (NSC19893), paclitaxel (NSC125973), vemurafenib (NSC761431), MSA-2 (NSC828583), SN-011 (NSC837082), adavosertib (NSC754352), prexasertib (NSC758257), carboplatin (NSC241240) and oxaliplatin (NSC266046), were obtained from the National Cancer Institute (NCI) Developmental Therapeutics Program Chemical Repository (21). The FDA-approved anticancer drug set is available from the Developmental Therapeutics Program at https://dtp.cancer.gov/organization/dscb/obtaining/. […] The stock solutions were prepared in dimethyl sulfoxide (DMSO, Sigma-Aldrich, St. Louis, MO, cat. D2650), except for the platinum compounds which were prepared in saline (Quality Biological, Gaithersburg, MD, cat. 114-055-101), at 800-fold the tested concentration and stored at -70 degrees C prior to their use. All drugs and investigational agents were tested over a range starting from a high concentration at or near the clinical Cmax and decreasing in half-log increments. If the clinical Cmax for an agent had not been determined, the highest concentration tested was 10 microM, except for SN-38, which was tested at a high concentration of 1 microM.
Cell Culture. All cells were maintained in an incubator at 37 degrees C and 5% CO2 with 95% humidity. The PDC lines were cultured according to standard operating procedures established by the NCI PDMR (https://pdmr.cancer.gov). Table 3 of the manuscript, lists the cell lines along with the number of the three cell types plated to form the mct-spheroids and media for tumor cell growth. After thawing, all PDC lines, except 997537-175-T-J1-PDC and 415267-285-R-J2-PDC, were cultured in Matrigel-coated flasks prepared with a working solution of 1X Ham's F-12 nutrient mix, without supplementation (Thermo Fisher Scientific, cat. 11765054), 100 U/mL penicillin-streptomycin (Thermo Fisher Scientific, cat. 15140122), and 2.5% Matrigel (Corning Inc., Corning, NY, cat. 354248) for the first three passages. The two PDC lines 997537-175-T-J1-PDC and 415267-285-R-J2-PDC were cultured on uncoated flasks. The 857933-349-R-J2-PDC line was cultured in 6C/Colon 1B media containing advanced DMEM/F-12 (Thermo Fisher Scientific, cat. 12634028), 10 mM HEPES (Thermo Fisher Scientific, cat. 15630080), 1X GlutaMAX supplement (Thermo Fisher Scientific, cat. 35050061), 0.1 mg/mL primocin (InvivoGen, San Diego, CA, cat. ant-pm-2), 10% defined fetal bovine serum, heat inactivated (HyClone Laboratories Inc., Logan, UT, cat. SH30070.03HI), 50% L-WRN conditioned media (ATCC, cat. CRL-3276), 1.25 mM N-Acetyl-L-cysteine (Sigma-Aldrich, cat. A9165), 10 mM nicotinamide (Sigma-Aldrich, cat. N0636), 1X B-27 supplement (Thermo Fisher Scientific, cat. 17504044), 1X N-2 supplement (Thermo Fisher Scientific, cat. […]

[1] = second compound 0.0316 µM, first compound 0.00316 µM
[2] = second compound 0.0316 µM, first compound 0.01 µM
[3] = second compound 0.0316 µM, first compound 0.0316 µM
[4] = second compound 0.0316 µM, first compound 0.1 µM
[5] = second compound 0.1 µM, first compound 0.00316 µM
[6] = second compound 0.1 µM, first compound 0.01 µM
[7] = second compound 0.1 µM, first compound 0.0316 µM
[8] = second compound 0.1 µM, first compound 0.1 µM
[9] = second compound 0.316 µM, first compound 0.00316 µM
[10] = second compound 0.316 µM, first compound 0.01 µM
[11] = second compound 0.316 µM, first compound 0.0316 µM
[12] = second compound 0.316 µM, first compound 0.1 µM
[13] = second compound 1 µM, first compound 0.00316 µM
[14] = second compound 1 µM, first compound 0.01 µM
[15] = second compound 1 µM, first compound 0.0316 µM
[16] = second compound 1 µM, first compound 0.1 µM
[17] = second compound 3.16 µM, first compound 0.00316 µM
[18] = second compound 3.16 µM, first compound 0.01 µM
[19] = second compound 3.16 µM, first compound 0.0316 µM
[20] = second compound 3.16 µM, first compound 0.1 µM
[21] = second compound 10 µM, first compound 0.00316 µM
[22] = second compound 10 µM, first compound 0.01 µM
[23] = second compound 10 µM, first compound 0.0316 µM
[24] = second compound 10 µM, first compound 0.1 µM
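Note: spheroids exposed to drugs for seven days before reading.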
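Throughout, for viability, T/C: 100% = DMSO vehicle control viability in luminescence.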

CC[C@@]1(O)C(=O)OCc2c1cc1n(c2=O)Cc2cc3c(CN(C)C)c(O)ccc3nc2-1 + COC1C(OC(N)=O)C(O)C(Oc2ccc3c(O)c(NC(=O)c4ccc(O)c(CC=C(C)C)c4)c(=O)oc3c2C)OC1(C)C
IC50 (second compound 0.0316 µM): > 100 nM | IC50 (second compound 0.1 µM): > 100 nM | IC50 (second compound 0.316 µM): > 100 nM | IC50 (second compound 1 µM): > 100 nM | IC50 (second compound 3.16 µM): > 100 nM | IC50 (second compound 10 µM): > 100 nM | viability, T/C (second compound 0.0316 µM, first compound 0.000316 µM): 113% | viability, T/C (second compound 0.0316 µM, first compound 0.001 µM): 95.6% | viability, T/C [1]: 101% | viability, T/C [2]: 96.6% | viability, T/C [3]: 87.5% | viability, T/C [4]: 52.1% | viability, T/C (second compound 0.1 µM, first compound 0.000316 µM): 98.4% | viability, T/C (second compound 0.1 µM, first compound 0.001 µM): 103% | viability, T/C [5]: 102% | viability, T/C [6]: 96% | viability, T/C [7]: 90.4% | viability, T/C [8]: 56.1% | viability, T/C (second compound 0.316 µM, first compound 0.000316 µM): 105% | viability, T/C (second compound 0.316 µM, first compound 0.001 µM): 106% | viability, T/C [9]: 102% | viability, T/C [10]: 99.6% | viability, T/C [11]: 87.6% | viability, T/C [12]: 58.1% | viability, T/C (second compound 1 µM, first compound 0.000316 µM): 103% | viability, T/C (second compound 1 µM, first compound 0.001 µM): 99.6% | viability, T/C [13]: 105% | viability, T/C [14]: 102% | viability, T/C [15]: 84.8% | viability, T/C [16]: 53.9% | viability, T/C (second compound 3.16 µM, first compound 0.000316 µM): 102% | viability, T/C (second compound 3.16 µM, first compound 0.001 µM): 99.1% | viability, T/C [17]: 99.8% | viability, T/C [18]: 109% | viability, T/C [19]: 92.3% | viability, T/C [20]: 55.5% | viability, T/C (second compound 10 µM, first compound 0.000316 µM): 108% | viability, T/C (second compound 10 µM, first compound 0.001 µM): 103% | viability, T/C [21]: 98.5% | viability, T/C [22]: 103% | viability, T/C [23]: 84.8% | viability, T/C [24]: 57.6%

CCc1c2c(nc3ccc(O)cc13)-c1cc3c(c(=O)n1C2)COC(=O)[C@]3(O)CC + COC1C(OC(N)=O)C(O)C(Oc2ccc3c(O)c(NC(=O)c4ccc(O)c(CC=C(C)C)c4)c(=O)oc3c2C)OC1(C)C
IC50 (second compound 0.0316 µM): 25.4 nM | IC50 (second compound 0.1 µM): 51.5 nM | IC50 (second compound 0.316 µM): 41.9 nM | IC50 (second compound 1 µM): 33.9 nM | IC50 (second compound 3.16 µM): 42.2 nM | IC50 (second compound 10 µM): 43.4 nM | viability, T/C [1]: 96.3% | viability, T/C [2]: 52.5% | viability, T/C [3]: 52.3% | viability, T/C [4]: 47% | viability, T/C (second compound 0.0316 µM, first compound 0.316 µM): 35.1% | viability, T/C (second compound 0.0316 µM, first compound 1 µM): 23.8% | viability, T/C [5]: 84% | viability, T/C [6]: 59% | viability, T/C [7]: 55.8% | viability, T/C [8]: 49.7% | viability, T/C (second compound 0.1 µM, first compound 0.316 µM): 31.7% | viability, T/C (second compound 0.1 µM, first compound 1 µM): 27.5% | viability, T/C [9]: 83.7% | viability, T/C [10]: 56% | viability, T/C [11]: 53.7% | viability, T/C [12]: 47.5% | viability, T/C (second compound 0.316 µM, first compound 0.316 µM): 31.4% | viability, T/C (second compound 0.316 µM, first compound 1 µM): 25.8% | viability, T/C [13]: 82% | viability, T/C [14]: 52.3% | viability, T/C [15]: 57.9% | viability, T/C [16]: 43.3% | viability, T/C (second compound 1 µM, first compound 0.316 µM): 30.1% | viability, T/C (second compound 1 µM, first compound 1 µM): 27.9% | viability, T/C [17]: 86.7% | viability, T/C [18]: 57.3% | viability, T/C [19]: 57.9% | viability, T/C [20]: 40.3% | viability, T/C (second compound 3.16 µM, first compound 0.316 µM): 35.9% | viability, T/C (second compound 3.16 µM, first compound 1 µM): 23.8% | viability, T/C [21]: 83.3% | viability, T/C [22]: 54.6% | viability, T/C [23]: 59.4% | viability, T/C [24]: 41.9% | viability, T/C (second compound 10 µM, first compound 0.316 µM): 35.5% | viability, T/C (second compound 10 µM, first compound 1 µM): 27.8%
